# Measurements as given in patent US20140357487A1, “PLANTS HAVING INCREASED TOLERANCE TO HERBICIDES” (BASF SE, priority 2011, published 2014).
# Key:
# [1] = tested on: transgenic Arabidopsis plants overexpressing Synechocystis HPPD (Seq ID: 20); test: Arabidopsis growth inhibition in 48-well plates, line overexpressing Synechocystis HPPD; type: in vivo, Arabidopsis thaliana; conditions: Synechocystis (Seq ID: 20) overexpression line; plant growth IC50 of transgenic divided by that of wildtype plants
# Description: Various methods for the production of stably transformed plants are well known in the art. Coumarone-derivative herbicide tolerant soybean (Glycine max) or corn (Zea mays) plants can be produced by a method described by Olhoft et al. (US patent 2009/0049567). Briefly, HPPD or HST encoding polynucleotides are cloned into a binary vector using standard cloning techniques as described by Sambrook et al. (Molecular cloning (2001) Cold Spring Harbor Laboratory Press). The final vector construct contains an HPPD or HST encoding sequence flanked by a promoter sequence (e.g. the ubiquitin promoter (PcUbi) sequence) and a terminator sequence (e.g. the nopaline synthase terminator (NOS) sequence) and a resistance marker gene cassette (e.g. AHAS) (FIG. 2). Optionally, the HPPD or HST gene can provide the means of selection. Agrobacterium-mediated transformation is used to introduce the DNA into soybean's axillary meristem cells at the primary node of seedling explants. After inoculation and co-cultivation with Agrobacteria, the explants are transferred to shoot induction medium without selection for one week. […]
# Depending on the species, the plants are kept at 10-25° C. or 20-35° C. […] During this time, the plants are tended and their response to the individual treatments is evaluated. […] Tolerance to coumarone-derivative herbicides can also be assessed in Arabidopsis. […]
# [2] = tested on: transgenic soybean plants, Arabidopsis I393L L385V, event SDS-9908; test: Greenhouse testing of transgenic soybean plants, Arabidopsis I393L L385V; type: in vivo, Glycine max; conditions: soybean SDS-9908, 5 days after herbicide treatment, average of 8 T1
# Description: (§1) Various methods for the production of stably transformed plants are well known in the art. Coumarone-derivative herbicide tolerant soybean (Glycine max) or corn (Zea mays) plants can be produced by a method described by Olhoft et al. (US patent 2009/0049567). Briefly, HPPD or HST encoding polynucleotides are cloned into a binary vector using standard cloning techniques as described by Sambrook et al. (Molecular cloning (2001) Cold Spring Harbor Laboratory Press). The final vector construct contains an HPPD or HST encoding sequence flanked by a promoter sequence (e.g. the ubiquitin promoter (PcUbi) sequence) and a terminator sequence (e.g. the nopaline synthase terminator (NOS) sequence) and a resistance marker gene cassette (e.g. AHAS) (FIG. 2). Optionally, the HPPD or HST gene can provide the means of selection. Agrobacterium-mediated transformation is used to introduce the DNA into soybean's axillary meristem cells at the primary node of seedling explants. After inoculation and co-cultivation with Agrobacteria, the explants are transferred to shoot induction medium without selection for one week. The explants are subsequently transferred to shoot induction medium with 1-3 μM imazapyr (Arsenal) for 3 weeks to select for transformed cells. Explants with healthy callus/shoot pads at the primary node are then transferred to shoot elongation medium containing 1-3 μM imazapyr until a shoot elongates or the explant dies. After regeneration, transformants are transplanted to soil in small pots, placed in growth chambers (16 hr day/8 hr night; 25° C. day/23° C. night; 65% relative humidity; 130-150 mE m−2 s−1) and subsequently tested for the presence of the T-DNA via Taqman analysis. After a few weeks, healthy, transgenic positive, single copy events are transplanted to larger pots and allowed to grow in the growth chamber. Transformation of corn plants is done by a method described by McElver and Singh (WO 2008/124495). Plant transformation vector constructs containing HPPD or HST sequences are introduced into maize immature embryos via Agrobacterium-mediated transformation. Transformed cells are selected in selection media supplemented with 0.5-1.5 μM imazethapyr for 3-4 weeks. Transgenic plantlets are regenerated on plant regeneration media and rooted afterwards. Transgenic plantlets are subjected to TaqMan analysis for the presence of the transgene before being transplanted to potting mixture and grown to maturity in greenhouse. Arabidopsis thaliana is transformed with HPPD or HST sequences by floral dip method as described by McElver and Singh (WO 2008/124495). Transgenic Arabidopsis plants are subjected to Tag Man analysis for analysis of the number of integration loci. Transformation of Oryza sativa (rice) are done by protoplast transformation as described by Peng et al. (U.S. Pat. No. 6,653,529)
# (§2) Transgenic plants expressing heterologous HPPD or HST enzymes are tested for tolerance against coumarone-derivative herbicides in greenhouse experiments.
# (§3) For post emergence treatment, the test plants are first grown to a height of 3 to 15 cm, depending on the plant habit, and only then treated with the herbicides. For this purpose, the test plants are either sown directly and grown in the same containers, or they are first grown separately and transplanted into the test containers a few days prior to treatment.
# (§4) Depending on the species, the plants are kept at 10-25° C. or 20-35° C. The test period extends over 3 weeks. During this time, the plants are tended and their response to the individual treatments is evaluated. […] Tolerance to coumarone-derivative herbicides can also be assessed in Arabidopsis. In this case transgenic Arabidopsis thaliana plants are assayed for improved tolerance to coumarone-derivative herbicides in 48-well plates. Seeds are surface sterilized by stirring for 5 min in ethanol+water (70+30 by volume), rinsing one time with ethanol+water (70+30 by volume) and two times with a sterile, deionized water. […]
# [3] = tested on: transgenic soybean plants, Arabidopsis M335H, event SDS-9977; test: Greenhouse testing of transgenic soybean plants, Arabidopsis M335H; type: in vivo, Glycine max; conditions: soybean SDS-9977, 5 days after herbicide treatment, average of 8 T1
# Description: as §1, §2, §3, §4
SMILES,Tolerance factor [1],"Injury evaluation, scale of 1-100, bleaching phenotype ([2]; 2.5 g/ha)","Injury evaluation, scale of 1-100, bleaching phenotype ([2]; 10 g/ha)","Injury evaluation, scale of 1-100, bleaching phenotype ([2]; 40 g/ha)","Injury evaluation, scale of 1-100, bleaching phenotype ([3]; 2.5 g/ha)","Injury evaluation, scale of 1-100, bleaching phenotype ([3]; 10 g/ha)","Injury evaluation, scale of 1-100, bleaching phenotype ([3]; 40 g/ha)","Injury evaluation, scale of 1-100, bleaching phenotype ([2]; 6.25 g/ha)","Injury evaluation, scale of 1-100, bleaching phenotype ([2]; 25 g/ha)","Injury evaluation, scale of 1-100, bleaching phenotype ([2]; 100 g/ha)","Injury evaluation, scale of 1-100, bleaching phenotype ([3]; 6.25 g/ha)","Injury evaluation, scale of 1-100, bleaching phenotype ([3]; 25 g/ha)","Injury evaluation, scale of 1-100, bleaching phenotype ([3]; 100 g/ha)"
"CC1(C)c2cccnc2C(O)=C(c2ccc(Cl)nc2Cl)S1(=O)=O [Inhibitor 2, 7-(2,6-dichloro-3-pyridyl)-5,5-dimethyl-6,6-dioxo-thiopyrano[4,3-b]pyridin-8-ol]",1,3,3,5,1,1,5,,,,,,
"Cc1c(C(=O)c2cnn(C)c2O)ccc(S(C)(=O)=O)c1C1=NOCC1 [Topramezone, reference compound]",,,,,,,,2,7,14,8,4,15
"CC1=NOC(c2c(Cl)ccc(C3=C(O)c4ncccc4C(C)(C)S3(=O)=O)c2Cl)C1 (centres unmarked) [Inhibitor 1, 7-[2,4-dichloro-3-(3-methyl-4,5-dihydroisoxazol-5-yl)phenyl]-5,5-dimethyl-6,6-dioxo-thiopyrano[4,3-b]pyridin-8-ol]",1,,,,,,,,,,,,
